For one assay, the system named is NLRP6 inflammasome. Nature of the assay: Colon explants cultured with metabolites (IL-18 ELISA, caspase-1 immunoblot, gene expression). Format: cell-based, mouse. Conditions: colon explants incubated for 24 hrs, compared with spermine. On the procedure: Colons were excised and washed thoroughly with PBS, homogenized in RIPA buffer containing protease inhibitors, incubated for 20 min in 4° C. and centrifuged for 20 min, 14,000 rpm at 4° C. Samples were separated on 15% acrylamide gels and transferred onto nitrocellulose membranes. Western blot analysis was performed using anti-caspase 1 p20 polyclonal antibody (Adipogen, AG-20B-0042B-C100) and Goat anti mouse antibody (Jackson ImmunoResearch, 115-035-003). Band density was calculated using ImageJ software. Colon pieces, 0.5 cm long, from the proximal colon were removed, rinsed with PBS, and weighed. The tissue explants were cultured for 24 hrs in DMEM medium containing 10% FBS, L-glutamine, penicillin, and streptomycin at 37° C. Culture medium was collected, centrifuged and the resulting supernatant stored in aliquots at -20° C. Concentrations of IL-18 in the serum or culture supernatants were measured using ELISA. […] Samples were then washed and plates were incubated with anti-mouse IL-18-biotin antibody ([…]-6 MBL) for 1 hour and HRP-Avidin (BioLegend) for 1 hour before quantification. […] For AMP induction in-vitro, 3 μg IL-18 were added to colon explants for 7 hours, then the explants were maintained in RNAlater and RNA was extracted. Tissues were preserved in RNAlater solution (Ambion) and subsequently homogenized in Tri Reagent (Fox et al.). RNA was purified according to the manufacturer's instructions. Two microgram of total RNA was used to generate cDNA (HighCapacity cDNA Reverse Transcription kit; Applied Biosystems). RealTime-PCR was performed using gene-specific primer/probe sets (Applied Biosystems) and Kapa Probe Fast qPCR kit (Kapa Biosystems) on a Viia7 instrument (Applied Biosystems). PCR conditions were 95° C. for 20 s, followed by 40 cycles of 95° C. for 3 s and 60° C. for 30 s. Data were analyzed using the deltaCt method with hprt serving as the reference housekeeping gene.

Assay [1] deals with colonic AMPs. The assay can be described thus: In-vivo injection of recombinant IL-18, colonic IL-18 and AMP levels. Also noted: species or system mouse. On the procedure: (§1) For IL-18 rescue experiments, recombinant IL-18 (MBL, Cat#B004-2) was injected intraperitoneally at a concentration of 1 μg per mouse for 5 days, and not injected for 2 days prior to DSS treatment. IL-18 injection to Swiss Webster germ-free mice and Nlrp6^−/− mice was performed twice a day for 3 days, while the mice were kept sterile using a cage-autonomous system (Hecht et al., 2014).
Concentrations of IL-18 in the serum or culture supernatants were measured using ELISA. Plates were coated over night with IL-18 (MBL, B004-2), incubated for 4 hours with supernatant or serum. Samples were then washed and plates were incubated with anti-mouse IL-18-biotin antibody (D048-6 MBL) for 1 hour and HRP-Avidin (BioLegend) for 1 hour before quantification.
(§2) Tissues were preserved in RNAlater solution (Ambion) and subsequently homogenized in Tri Reagent (Fox et al.). RNA was purified according to the manufacturer's instructions. Two microgram of total RNA was used to generate cDNA (HighCapacity cDNA Reverse Transcription kit; Applied Biosystems). RealTime-PCR was performed using gene-specific primer/probe sets (Applied Biosystems) and Kapa Probe Fast qPCR kit (Kapa Biosystems) on a Viia7 instrument (Applied Biosystems). PCR conditions were 95° C. for 20 s, followed by 40 cycles of 95° C. for 3 s and 60° C. for 30 s. Data were analyzed using the deltaCt method with hprt serving as the reference housekeeping gene.

The test system of the next assay is intestinal microbiota. The assay can be described thus: In-vivo injection of recombinant IL-18, 16S microbiota analysis. On the set-up: species or system mouse. As for the experimental part:
as §1
Frozen fecal samples were processed for DNA isolation using the MoBio PowerSoil kit according to the manufacturer's instructions. For the 16S rRNA gene PCR amplification, ing of the purified fecal DNA was used for PCR amplification. Amplicons spanning the variable region 1/2 (V1/2) of the 16S rRNA gene were generated by using the following barcoded primers: Fwd 5′-XXXXXXXXAGAGTTTGATCCTGGCTCAG-3′ (SEQ ID NO: 1), Rev 5′-TGCTGCCTCCCGTAGGAGT-3′ (SEQ ID NO: 2), where X represents a barcode base. The reactions were subsequently pooled and cleaned (PCR clean kit, Promega), and the PCR products were then sequenced on an Illumina MiSeq in 500 bp paired-end method. The reads were then processed using the QIIME (Quantitative Insights Into Microbial Ecology, www(dot)qiime(dot)org) analysis pipeline as described (Caporaso et al., 2010; Elinav et al., 2011). In brief, fasta quality files and a mapping file indicating the barcode sequence corresponding to each sample were used as inputs, reads were split by samples according to the barcode, taxonomical classification was performed using the RDP-classifier, and an OTU table was created. Closed-reference OTU mapping was employed using the Greengenes database. Rarefaction was used to exclude samples with insufficient count of reads per sample. Sequences sharing 97% nucleotide sequence identity in the V2 region were binned into operational taxonomic units (97% ID OTUs). For beta-diversity, weighted unifrac measurements were plotted according to the two principal coordinates based on 1,000 reads per sample. The OTU tables used for our analyses are made accessible online.

Another assay has as its system DSS colitis. The assay can be described thus: DSS colitis. In kind it is in vivo, mouse. Particulars: Asc-/- mice, IL-18 i.p. prior to induction of DSS colitis. As for the experimental part:
as §1
Mice were treated with 1.5% (w/v) DSS (M.W.=36,000-50,000 Da; MP Biomedicals) in their drinking water for 7 days followed by regular access to water. The animals were weighed daily and monitored for signs of distress as well as rectal bleeding.
For DSS rescue experiments, mice were receiving taurine in the drinking water prior to DSS treatment in a concentration of 100 mg/ml for 14 days.
Colonoscopy was performed using a high-resolution mouse video endoscopic system (Carl Storz, Tuttlingen, Germany). The severity of colitis was blindly scored using MEICS (Murine Endoscopic Index of Colitis Severity), which is based on five parameters: granularity of mucosal surface; vascular pattern; translucency of the colon mucosa; visible fibrin; and stool consistency (Becker et al., 2006).
On the day of the assay, 4 kDa fluorescein isothiocyanate (FITC)-dextran was dissolved in phosphate buffered saline (PBS) to a concentration of 80 mg ml^−1. Mice were fasted for 4 hours prior to gavage with 150 μl dextran. Mice were anesthetized 3 hours following gavage and blood was collected, centrifuged at 1,000×g for 12 min at 4° C. Serum was collected and fluorescence was quantified at an excitation wavelength of 485 nm and 535 nm emission wavelength.
DNA was extracted from liver samples (using MoBio PowerSoil kit). DNA concentration was calculated using a standard curve of known DNA concentrations from E. coli K12. 16S qPCR using primers identifying different regions of the V6 16S gene was performed using Kappa SYBR fast mix.
Absolute number of bacteria in the samples was then approximated as DNA amount in a sample/DNA molecule mass of bacteria.

For assay [2], the system named is colonic AMPs. Nature of the assay: IL-18 added to germ-free colon explants, AMP induction in-vitro. In kind it is cell-based, mouse. Conditions: GF colon explants, sterile conditions. On the procedure: Colon explants were incubated with 70 mM of taurine (Sigma Aldrich, T0625), histamine (Sigma Aldrich, H7125) or spermine (Sigma Aldrich, S3256) for 24 hours. For AMP induction in-vitro, 3 μg IL-18 were added to colon explants for 7 hours, then the explants were maintained in RNAlater and RNA was extracted.
as §2

A further assay has as its system microbiota. The assay can be described thus: Ang4 in-vitro culture of stool microbiota under anaerobic conditions. Also noted: species or system mouse. As for the experimental part:
Murine Ang4 was expressed in E. coli and purified as previously described (Holloway et al, 2001). Stool pellets were collected and cultured in anaerobic conditions for 8 hours with rAng4, centrifuged and further analyzed using 16S rRNA sequencing.
Frozen fecal samples were processed for DNA isolation using the MoBio PowerSoil kit according to the manufacturer's instructions. For the 16S rRNA gene PCR amplification, ing of the purified fecal DNA was used for PCR amplification. […] The reads were then processed using the QIIME (Quantitative Insights Into Microbial Ecology, www(dot)qiime(dot)org) analysis pipeline as described (Caporaso et al., 2010; Elinav et al., 2011). In brief, fasta quality files and a mapping file indicating the barcode sequence corresponding to each sample were used as inputs, reads were split by samples according to the barcode, taxonomical classification was performed using the RDP-classifier, and an OTU table was created. […] Rarefaction was used to exclude samples with insufficient count of reads per sample. […] For beta-diversity, weighted unifrac measurements were plotted according to the two principal coordinates based on 1,000 reads per sample. […]

Setting [3] is: GF Nlrp6-/- mice, sterile administration.
Setting [4] is: mice lacking NLRP6, ASC, or caspase-1/11.

As for `NCCCCN` [putrescine], in the assay with NLRP6 inflammasome, the “IL-18 in colon explants” value is listed as “equally suppressed”.

On to “IL-18: recombinant IL-18 (MBL, Cat#B004-2)”, for which, in the assay with colonic AMPs [1] (setting [3]), the Ang4 entry is listed as “induced” and the “defect in secretion of mature IL-18 protein” value was “rescued this defect”. Further, the “levels of colonic AMPs” value in the assay with colonic AMPs [1] (WT GF mice, in-vivo administration) is given as “restored normal levels”. In the assay with colonic AMPs [1] (setting [4]), the AMP levels result is “restored” and the IL-18 levels entry was “restored”. Moreover, in the assay on intestinal microbiota (Asc- and Caspase-1/11-deficient mice), the microbiota configuration result is listed as “significant configuration changes”. The “aberrant microbiota composition, beta- and alpha-diversity” value in the assay with intestinal microbiota (Caspase-1/11-/- mice) was “corrected”. Also, the “abundance of multiple commensal bacteria” value with intestinal microbiota (Caspase-1/11-/- mice, relative to WT levels) is “restored”. The microbial community composition entry with intestinal microbiota (Nlrp6-/- mice) is “marked compositional changes”. Further, the microbiota composition entry with intestinal microbiota (WT mice) is recorded as “not affected”. Besides, the “dominant transmission of the dysbiotic microbiota configuration” value in the assay with intestinal microbiota (WT recipients cohoused with inflammasome-deficient mice) is “prevented”. Moreover, the “UniFrac distance to cohousing partners” value in the assay with intestinal microbiota (grWT(Asc-/-) mice injected with IL-18) is “increased”. Further, in the assay with DSS colitis, the colitis severity result is on record as “diminished”, the colonoscopy score result was “improved” and the weight loss result is “reduced”. For the same molecule, the “levels of colonic AMPs” value with colonic AMPs [2] is listed as “restored normal levels”.

B1: Ang4: Murine Ang4 expressed in E. coli and purified; antimicrobial peptide (protein, UniProt Q3TMQ6 25-144, looked up)
Angiogenin-4: QNERYEKFLRQHYDAKPNGRDDRYCESMMKERKLTSPCKDVNTFIHGTKKNIRAICGKKGSPYGENFRISNSPFQITTCTHSGASPRPPCGYRAFKDFRYIVIACEDGWPVHFDESFISP
On to B1, for which, in the assay with microbiota (anaerobic in-vitro microbiome cultures of Asc-/- mice), the beta- and alpha-diversity entry is “partially restored”. Moreover, in the assay on microbiota (microbiota from Asc-/- mice compared with WT mice), the “impact on overall community composition” value is reported as “greater”.

(Values after patent publication US20190382827A1, “USE OF MICROBIAL METABOLITES FOR TREATING DISEASES” (Yeda Research and Development Co. Ltd., priority 2015, published 2019).)
